Data published in ChEMBL document CHEMBL5550185, “Targeting hTERT Promoter G-Quadruplex DNA Structures with Small-Molecule Ligand to Downregulate hTERT Expression for Triple-Negative Breast Cancer Therapy” (J Med Chem, 2024).

Legend:
[1] = system: HepG2; test: Cytotoxicity against telomerase-positive human HepG2 cells assessed as inhibition of cell growth incubated for 48 hrs by MTT assay; type: functional, cell-based; settings: HepG2, 48 h
[2] = system: PC-3; test: Cytotoxicity against telomerase-positive human PC-3 cells assessed as inhibition of cell growth incubated for 48 hrs by MTT assay; type: functional, cell-based; settings: PC-3, 48 h
[3] = system: HeLa; test: Cytotoxicity against telomerase-positive human HeLa cells assessed as inhibition of cell growth incubated for 48 hrs by MTT assay; type: functional, cell-based
[4] = system: A549; test: Cytotoxicity against telomerase-positive human A549 cells assessed as inhibition of cell growth incubated for 48 hrs by MTT assay; type: functional, cell-based; settings: A549, 48 h
[5] = system: MDA-MB-231; test: Cytotoxicity against telomerase-positive human MDA-MB-231 cells assessed as inhibition of cell growth incubated for 48 hrs by MTT assay; type: functional, cell-based; settings: MDA-MB-231, 48 h
[6] = system: U2OS; test: Cytotoxicity against alternative lengthening of telomere-positive human U2OS cells assessed as inhibition of cell growth incubated for 48 hrs by MTT assay; type: functional, cell-based
[7] = Cytotoxicity against human HK-2 cells assessed as inhibition of cell growth incubated for 48 hrs by MTT assay; type: toxicity, cell-based
[8] = Cytotoxicity against HUVEC cells assessed as inhibition of cell growth incubated for 48 hrs by MTT assay; type: toxicity, cell-based; settings: human

Row | SMILES | IC50 [1] [µM] | IC50 [2] [µM] | IC50 [3] [µM] | IC50 [4] [µM] | IC50 [5] [µM] | IC50 [6] [µM] | IC50 at 48 h [7] [µM] | IC50 at 48 h [8] [µM]
1 | CC1CCN(CCCN2/C(=C/c3cc(/C=C/c4cc5ccccc5[nH]4)[n+](C)c4ccccc34)Sc3ccccc32)CC1 | 5 | 2.5 | 3.1 | 4.3 | 2.6 | 6.2 | 6.3 | 8
2 | C[n+]1c(/C=C/c2cc3ccccc3[nH]2)cc(/C=C2\Sc3ccccc3N2CCCN2CCC(C(F)(F)F)CC2)c2ccccc21 | 4.7 | 3.9 | 5.5 | 6.6 | 5.3 | 9.8 | 14.7 | 12
3 | CCN(CC)CCCN1/C(=C/c2cc(/C=C/c3cc4ccccc4[nH]3)[n+](C)c3ccccc23)Sc2ccccc21 | 5.4 | 3.1 | 3.3 | 4.7 | 5.6 | 10.3 | 9.5 | 11.9
4 | C[n+]1c(/C=C/c2cc3ccccc3[nH]2)cc(/C=C2\Sc3ccccc3N2CCCN2CCOCC2)c2ccccc21 | 5.2 | 4.8 | 4.1 | 5 | 6.4 | 14.8 | 9.5 | 16.6
5 | C[n+]1c(/C=C/c2cc3ccccc3[nH]2)cc(/C=C2\Sc3ccccc3N2CCCN2CCCCC2)c2ccccc21 | 4.5 | 3.3 | 3 | 3.6 | 3.3 | 5 | 7.9 | 9.4
6 | CC1CCN(CCCN2/C(=C/c3cc(/C=C/c4c[nH]c5ccccc45)[n+](C)c4ccccc34)Sc3ccccc32)CC1 | 3.2 | 2.4 | 1.9 | 1.7 | 1.9 | 5.3 | 5.5 | 6
7 | CC(C)(C)OO [TERT-BUTYL HYDROPEROXIDE] | – | – | – | – | 549 | – | – | –
8 | C[n+]1c(/C=C/c2c[nH]c3ccccc23)cc(/C=C2\Sc3ccccc3N2CCCN2CCOCC2)c2ccccc21 | 5.8 | 4.7 | 2.3 | 2.1 | 2.9 | 7.8 | 5.8 | 16.5
9 | CCN(CC)CCCN1/C(=C/c2cc(/C=C/c3c[nH]c4ccccc34)[n+](C)c3ccccc23)Sc2ccccc21 | 4.7 | 5.4 | 1.9 | 2.3 | 2.1 | 9.4 | 4.6 | 14.5
10 | C[n+]1c(/C=C/c2c[nH]c3ccccc23)cc(/C=C2\Sc3ccccc3N2CCCN2CCCCC2)c2ccccc21 | 4.5 | 3.8 | 1.8 | 1.7 | 3.1 | 5.1 | 5.4 | 11.9
